As a reminder, the inhibition is the change of the read-out against control, counted positive when it falls.

Format in all cases: functional
Parameters in all cases: concentration or dose not given beside the values

In experiment [1] the test system is Plasmodium falciparum. The experiment can be described thus: MMV: P. falciparum NF54 functionally mature Stage V gametocytes were incubated for 24 hr in the presence of the test compounds. Gamete formation was then triggered by addition of 2uM xantheurenic acid and temperature decrease to ~20C. Male gamete exflagellation was recorded and analysed by automated microscopy after 20 min. All compounds were tested in 4 independent experiments and data presented here is the mean.

Experiment [2] deals with Plasmodium berghei. The experiment can be described thus: MMV: P. berghei-infected blood was withdrawn from mice by cardiac pucture before being immediately added to ookinete culture medium containing test compounds. 26 hr later, GFP-positive ookinetes were identified and counted by automated microscopy. All compounds were tested in 4 independent experiments and data presented here is the mean.

For experiment [3], the system named is Plasmodium falciparum. Kind of experiment: MMV: P. falciparum NF54 functionally mature Stage V gametocytes were incubated for 24 hr in the presence of the test compounds. Gamete formation was then triggered by addition of 2uM xantheurenic acid and temperature decrease to ~20C. Female gamete formation was recorded 24 hr later by automated microscopy detection of surface labelling of female gametes with a Cy3-conjugated antibody reactive to Pfs25. All compounds were tested in 4 independent experiments and data presented here is the mean. The settings on record: NF54, 24 h.

Take `CCOc1cc(CNC(C)C(O)c2ccccc2)cc(Cl)c1OCC` (configuration not stated): the inhibition in experiment [1] was 11.6%; in experiment [2], -7.956%; in experiment [3], -44.5%.

In the case of `COc1ccc(-c2nc(N3CCN(C(=O)C4CCCCC4)CC3)c3c4c(sc3n2)CCCC4)cc1`, the inhibition is 1.21% in experiment [1], -8.277% in experiment [2] and -9.88% in experiment [3].

On to `Cc1sc(NC(=O)c2ccco2)c(C(c2cccnc2)N2CCC(Cc3ccccc3)CC2)c1C` (configuration not stated), for which the inhibition in experiment [1] is 9.35%; in experiment [2], -7.977%; in experiment [3] it was -26%.

As to `Cc1cc(N2CCCC2)nc(Nc2ccc(NC(=O)CCc3ccccc3)cc2)n1`, the inhibition in experiment [1] was -19.1%; in experiment [2], -8.954%; in experiment [3], -8.07%.

As for `Cc1ccc(-c2cc3c(SCC(=O)Nc4cc(C(F)(F)F)ccc4Cl)nccn3n2)cc1`, the values for the inhibition in experiment [1], in experiment [2] and in experiment [3] were 11.4%, -10.47% and 0.168%, respectively.

As for `N#Cc1nc(Cc2cccc3ccccc23)oc1N1CCN(C(c2ccccc2)c2ccccc2)CC1`, the inhibition was 10.2% in experiment [1], -7.443% in experiment [2] and -38.4% in experiment [3].

Consider `COC(=O)c1ccc(Cl)c2c1C1C=CCC1C(c1cccc3ccccc13)N2` (configuration not stated), for which the inhibition in experiment [1] was 42.4%; in experiment [2], -8.751%; in experiment [3], 10.4%.

For `CN(N=O)C1=C(NC2CCCCC2)C(=O)c2ccccc2C1=O`, the inhibition in experiment [1] is 10.5%; in experiment [2] it was -8.019%; in experiment [3], -27.6%.

With `O=C(Nc1ccccc1O)c1ccc(Oc2cccc(C(=O)Nc3ccccc3O)c2)cc1`, the inhibition is 15.9% in experiment [1], -7.561% in experiment [2] and -9.72% in experiment [3].

Turning to `CCCCCC(=O)N1c2ccccc2N=C2CC(c3ccc(OC)c(OC)c3)CC(O)=C2C1c1ccc(C(F)(F)F)cc1` (configuration not stated), the inhibition is 59.4% in experiment [1], -9.202% in experiment [2] and -11.5% in experiment [3].

`Cc1cc(NCCN2CCCCC2)c2ccc3ccccc3c2n1`: the inhibition is -47.9% in experiment [1], -8.584% in experiment [2] and 7.19% in experiment [3].

Take `O=C(NC1CCN(Cc2ccccc2)CC1)c1cc(-c2ccncc2)nc2ccc(Cl)cc12`: the inhibition in experiment [1] is -6.34%; in experiment [2] it was -9.022%; in experiment [3] it was -10.1%.

As for `CCC(O)c1ccc(Br)cc1NC(=O)c1cccc(Cl)c1` (configuration not stated), the values for the inhibition in experiment [1], in experiment [2] and in experiment [3] were 4.9%, -8.417% and -44%, respectively.

For the molecule `COc1ccc2nc(N)nc(C)c2c1`, the inhibition in experiment [1] is 45.7%; in experiment [2] it was -8.497%; in experiment [3], 6.91%.

Take `CC1CN(C(=O)c2sc3ccccc3c2Cl)CC(C)O1` (configuration not stated): the figures for the inhibition in experiment [1], in experiment [2] and in experiment [3] were 35.6%, -8.352% and -12.3%, respectively.

In the case of `COc1ccc(CCN2CCC(CN(C)Cc3cnn(-c4ccccc4)c3)CC2)cc1`, the inhibition in experiment [1] was -4.67%; in experiment [2] it was -8.146%; in experiment [3], -27.5%.

With `O=C(NC1CCCC1)c1ccc(N2CCC(NCc3cccc(C(F)(F)F)c3)CC2)cc1`, the inhibition in experiment [1] was -12%; in experiment [2], -10.11%; in experiment [3], -14%.

For the molecule `CCOc1cc(Cl)c(C(C)NC(=O)c2cccc(OC)c2)cc1OCC` (configuration not stated), the values for the inhibition in experiment [1], in experiment [2] and in experiment [3] were 3.61%, -8.297% and -14.9%, respectively.

Consider `FC(F)(F)c1cccc(Nc2nc(-c3ccccc3)nc3ncccc23)c1`, for which the inhibition in experiment [1] was 10.8%; in experiment [2], -9.471%; in experiment [3] it was 8.9%.

Take `Cc1ccc(Cl)cc1N1CCN(CCCNC(=O)C2CCN(c3nc4ccccc4[nH]3)CC2)CC1`: the inhibition in experiment [1] was 5%; in experiment [2] it was -9.077%; in experiment [3] it was -57.2%.

Turning to `Cn1c(C(=O)c2cccc3ccccc23)nc2ccccc21`, the results for the inhibition in experiment [1], in experiment [2] and in experiment [3] were -24.7%, -7.647% and -20.6%, respectively.

In the case of `N=c1c2ccccc2nnn1-c1cccc(C(F)(F)F)c1`, the inhibition was 51.2% in experiment [1], -9.695% in experiment [2] and 7.15% in experiment [3].

Regarding `CCOc1cc(Cl)c(C(C)NC(=O)c2ccccc2)cc1OCC` (configuration not stated), the inhibition in experiment [1] was 32.8%; in experiment [2], -7.982%; in experiment [3], -37%.

Take `CC(=O)NCCc1nc2ccccc2n1Cc1ccc(C(C)C)cc1`: the inhibition in experiment [1] was -6.3%; in experiment [2] it was -8.216%; in experiment [3], -12.8%.

For the molecule `O=C(Nc1ccc(-c2nc3cc(NC(=O)c4ccc(Cl)cc4)ccc3[nH]2)cc1)c1ccc(Cl)cc1`, the results for the inhibition in experiment [1], in experiment [2] and in experiment [3] were -17.6%, -7.523% and -21.8%, respectively.

With `COc1nc(Nc2ccc(C(C)C)cc2)nc(OC)n1`, the inhibition in experiment [1] was -0.697%; in experiment [2] it was -7.623%; in experiment [3], -59.5%.

In the case of `CCOc1cccc(C(=O)Nc2ccc(-c3nc4ccccc4[nH]3)cc2)c1`, the inhibition is 32.1% in experiment [1], -10.12% in experiment [2] and -29.6% in experiment [3].

For the molecule `Cc1cc(N(C)C)nc(Nc2ccc(NC(=O)Nc3ccccc3)cc2)n1`, the inhibition is 33.6% in experiment [1], -9.07% in experiment [2] and -35.4% in experiment [3].

`Cc1ccc2cc3c(N)c4c(C)ccc(C)c4nc3nc2c1`: the inhibition was -9.27% in experiment [1], -10.8% in experiment [2] and -28.1% in experiment [3].

Turning to `O=C(CSc1ccc2nnc(-c3cccc(F)c3)n2n1)Nc1ccc2c(c1)OCO2`, the results for the inhibition in experiment [1], in experiment [2] and in experiment [3] were -1.24%, -8.438% and -24.8%, respectively.

Consider `CCCC(c1nnnn1C1CCCCC1)N1CCN(C(=O)c2ccco2)CC1.Cl` (configuration not stated), for which the inhibition is 23.7% in experiment [1], -10.21% in experiment [2] and -48.5% in experiment [3].

Consider `Cc1cc(NC(=O)c2ccc(-c3ccccc3)cc2)no1`, for which the values for the inhibition in experiment [1], in experiment [2] and in experiment [3] were 18.9%, -9.578% and -45.6%, respectively.

Take `COc1ccc(-c2nonc2NC(=O)c2cccc(C)c2)cc1OC`: the inhibition in experiment [1] was 31.3%; in experiment [2], -9.338%; in experiment [3], 3.1%.

Consider `Cc1cc(C)c2nc(N3CCC(C(=O)NCCCN4CCC(N5CCCCC5)CC4)CC3)sc2c1`, for which the results for the inhibition in experiment [1], in experiment [2] and in experiment [3] were 8.94%, -9.223% and 21.7%, respectively.

On to `O=C(Nc1ccsc1C(=O)NC1CCCCC1)c1ccc(F)cc1`, for which the inhibition in experiment [1] is 0.722%; in experiment [2], -7.294%; in experiment [3] it was -14.2%.

Turning to `CCOc1cccc2sc(N(Cc3cccnc3)C(=O)C3CCCCC3)nc12`, the inhibition in experiment [1] is -1.33%; in experiment [2] it was -7.751%; in experiment [3], -5.49%.

`CCN(CC)c1cc(C)c2cc(NC(=O)c3cccc(OC)c3)ccc2n1`: the inhibition was -1.32% in experiment [1], -7.501% in experiment [2] and -22.1% in experiment [3].

Regarding `CC(C)(C)CC(C)(C)NCC(O)COc1ccc2c(c1)CCC2.Cl` (configuration not stated), the inhibition in experiment [1] is -54.4%; in experiment [2] it was -7.207%; in experiment [3], -4.34%.

As for `O=C(Nc1ccc(F)c(Cl)c1)Nc1ccc(Cl)c(Cl)c1`, the values for the inhibition in experiment [1], in experiment [2] and in experiment [3] were 15.7%, -10.47% and -12.2%, respectively.

As for `CSc1ccccc1C(=O)Nc1nc(-c2ccccn2)cs1`, the figures for the inhibition in experiment [1], in experiment [2] and in experiment [3] were 20.5%, -9.487% and -18.6%, respectively.

Consider `CC(O)(c1ccc(Cl)cc1)C(CN1CCCCC1)c1ccccc1.Cl` (configuration not stated), for which the inhibition in experiment [1] is -5.37%; in experiment [2], -9.711%; in experiment [3] it was -1.41%.

In the case of `COc1ccc(OC)c(C2C3=C(CC(C)(C)CC3=O)N(c3ccc(Cl)c(Cl)c3)C3=C2C(=O)CC(C)(C)C3)c1`, the inhibition is -60% in experiment [1], -8.364% in experiment [2] and -10.6% in experiment [3].

Regarding `COc1ccc(C(=O)NC(c2ccccc2Cl)c2cc(Cl)c3cccnc3c2O)cc1` (configuration not stated), the figures for the inhibition in experiment [1], in experiment [2] and in experiment [3] were 2.11%, -9.997% and -6.93%, respectively.

With `Clc1ccc2c(N3CCCC3)ccnc2c1`, the inhibition in experiment [1] is 33.7%; in experiment [2], -9.994%; in experiment [3] it was 5.78%.

On to `CCCCCCC(O)(c1ccc(F)cc1)C(CN1CCOCC1)c1ccccc1.Cl` (configuration not stated), for which the inhibition in experiment [1] was -64%; in experiment [2], -9.863%; in experiment [3] it was 17.7%.

For `CCOc1c(Br)cc(C2C(C(=O)OC)=CN(C)C=C2C(=O)OC)cc1OC`, the results for the inhibition in experiment [1], in experiment [2] and in experiment [3] were 8.8%, -9.574% and 4.74%, respectively.

For the molecule `COc1ccc(NC(=O)C2c3ccccc3C(=O)N(CC(C)C)C2c2cccs2)cc1` (configuration not stated), the figures for the inhibition in experiment [1], in experiment [2] and in experiment [3] were 22.3%, -10.74% and 13.9%, respectively.

In the case of `Cc1ccc(S(=O)(=O)c2c(COC(=O)c3cccc(C)c3)c(-c3ccccc3)nn2C)cc1`, the inhibition in experiment [1] was -0.37%; in experiment [2] it was -10.49%; in experiment [3] it was -31.3%.

As for `CCCCN(CCCC)S(=O)(=O)c1ccc(NC(=O)c2ccco2)cc1`, the results for the inhibition in experiment [1], in experiment [2] and in experiment [3] were 30.9%, -10.62% and -25.1%, respectively.

The values above are taken from ChEMBL document CHEMBL3301451, “MMV Malaria Box gametocyte functional viability assay screening”.
